{"source": "patent US20100331269A1", "about": "“TRITERPENES DERIVATIVES AND USES THEREOF AS ANTITUMOR AGENTS OR ANTI-INFLAMMATORY AGENTS” (priority 2006, published 2010)", "key": {"[1]": {"test_system": "A-549 human lung carcinoma cells", "assay": "Cytotoxicity, resazurin metabolism assay, A-549", "format": "cell-based", "conditions": "48 h, mean ± SD", "how_it_was_run": "(§1)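 Cells plated at 5×10^3/well, adhered 16 h, then exposed to increasing compound concentrations (DMSO) for 48 h. Viability by resazurin reduction, fluorescence ex 530/em 590 nm, blank-subtracted versus control wells; IC50 as mean±SD from three experiments in triplicate.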"}, "[2]": {"test_system": "DLD-1 human colorectal adenocarcinoma cells", "assay": "Cytotoxicity, resazurin metabolism assay, DLD-1", "format": "cell-based", "conditions": "48 h, mean ± SD", "how_it_was_run": "as §1"}, "[3]": {"test_system": "B16-F1 mouse melanoma cells", "assay": "Cytotoxicity, resazurin metabolism assay, B16-F1", "format": "cell-based", "conditions": "48 h, mean ± SD", "how_it_was_run": "as §1"}, "[4]": {"test_system": "WS-1 human normal skin fibroblasts", "assay": "Cytotoxicity, resazurin metabolism assay, WS-1", "format": "cell-based", "conditions": "48 h, mean ± SD", "how_it_was_run": "as §1"}, "[5]": {"test_system": "B16-F1 cells", "assay": "Cytotoxicity, Hoechst DNA assay, B16-F1", "format": "cell-based, mouse", "conditions": "± SD", "how_it_was_run": "(§2)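 Cells grown at 37 °C, 5% CO2, in MEM with 10% FBS. Compound cytotoxicity was measured by Hoechst DNA staining. Activity is expressed as IC50, the concentration inhibiting 50% of cell growth.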"}, "[6]": {"test_system": "WS-1 cells", "assay": "Cytotoxicity, Hoechst DNA assay, WS-1", "format": "cell-based, human", "conditions": "± SD", "how_it_was_run": "as §2"}, "[7]": {"test_system": "Hep G2 human hepatocellular carcinoma cells", "assay": "Cytotoxicity, resazurin metabolism assay, Hep G2", "format": "cell-based", "conditions": "mean ± SD"}, "[8]": {"test_system": "MCF-7 human breast adenocarcinoma cells", "assay": "Cytotoxicity, resazurin metabolism assay, MCF-7", "format": "cell-based", "conditions": "mean ± SD"}, "[9]": {"test_system": "MDA-MB-231 human breast adenocarcinoma cells", "assay": "Cytotoxicity, resazurin metabolism assay, MDA-MB-231", "format": "cell-based", "conditions": "mean ± SD"}, "[10]": {"test_system": "SK-Mel-2 human melanoma cells", "assay": "Cytotoxicity, resazurin metabolism assay, SK-Mel-2", "format": "cell-based", "conditions": "mean ± SD"}, "[11]": {"test_system": "PA-1 human ovary teratocarcinoma cells", "assay": "Cytotoxicity, resazurin metabolism assay, PA-1", "format": "cell-based", "conditions": "mean ± SD"}, "[12]": {"test_system": "PC-3 human prostate adenocarcinoma cells", "assay": "Cytotoxicity, resazurin metabolism assay, PC-3", "format": "cell-based", "conditions": "mean ± SD"}, "[13]": {"assay": "Toxicity of treatment by body weight of tumour-bearing mice", "conditions": "Lewis lung cancer-bearing mice, IP treatment, day 13", "source_text": "Individual dose were based on the body weight of each mouse."}, "[14]": {"assay": "Determination of the maximum tolerated dose (MTD) after a single IP injection", "format": "in vivo, mice", "conditions": "for CSS Closed eyes / CSS Diarrhea / CSS Lethargy / CSS Rough coat / CSS Total / Number of deaths: 5 mice", "protocol": "Groups of five mice (Charles River) received a single IP injection of 3-O-α-L-rhamnopyranoside betulinic acid (22) in DMSO at doses of 50, 100, 250 and 500 mg/kg of body weight. […] A group of five control mice received the vehicle (DMSO). […] For each animal, a score was calculated based on the absence (value 0) or presence (value 1) of diarrhoea, lethargy, rough coat and closed eyes. A clinical state score (CSS) was then calculated per group by summing individual scores. All the mice were weighed daily during 3 days following the injection. The maximal weight loss was determined 24 hours and 3 days following the injection. The MTD was defined as the highest single dose that met all the following criteria: 1) zero death per group; 2) maximal weight loss 20% in non-tumour bearing animals; and 3) CSS value lower than 15."}}, "data": [{"smiles": "C=C(C)[C@@H]1CC[C@]2(C(=O)O)CC[C@]3(C)[C@H](CC[C@@H]4[C@@]5(C)CC[C@H](O[C@@H]6O[C@@H](C)[C@H](O)[C@@H](O)[C@H]6O)C(C)(C)[C@@H]5CC[C@]43C)[C@@H]12", "note": "[Compound 22, 3-O-α-L-Rhamnopyranoside of betulinic acid]", "values": [{"measurement": "IC50", "setting": "[1]", "result": "2.6 ± 0.6", "unit": "µM"}, {"measurement": "IC50", "setting": "[2]", "result": "3.9 ± 0.4", "unit": "µM"}, {"measurement": "IC50", "setting": "[3]", "result": "3.9 ± 0.4", "unit": "µM"}, {"measurement": "IC50", "setting": "[4]", "result": "31 ± 3", "unit": "µM"}, {"measurement": "IC50", "setting": "[5]", "result": "4.2 ± 0.5", "unit": "µM"}, {"measurement": "IC50", "setting": "[6]", "result": "38 ± 6", "unit": "µM"}, {"measurement": "IC50", "setting": "[7]", "result": "20 ± 2", "unit": "µM"}, {"measurement": "IC50", "setting": "[8]", "result": "16 ± 2", "unit": "µM"}, {"measurement": "IC50", "setting": "[9]", "result": "19 ± 2", "unit": "µM"}, {"measurement": "IC50", "setting": "[10]", "result": "20 ± 7", "unit": "µM"}, {"measurement": "IC50", "setting": "[11]", "result": "8 ± 1", "unit": "µM"}, {"measurement": "IC50", "setting": "[12]", "result": "20 ± 6", "unit": "µM"}, {"measurement": "Toxicity / body weight loss compared with controls", "setting": "[13]", "result": "did not show any sign of toxicity or body weight loss"}, {"measurement": "Max. weight loss after 24 hours", "setting": "[14]; 50 mg/kg single IP", "result": 11, "unit": "%"}, {"measurement": "Max. weight loss after 3 days", "setting": "[14]; 50 mg/kg single IP", "result": 0, "unit": "%"}, {"measurement": "CSS Closed eyes", "setting": "[14]; 50 mg/kg single IP", "result": 0}, {"measurement": "CSS Diarrhea", "setting": "[14]; 50 mg/kg single IP", "result": 0}, {"measurement": "CSS Lethargy", "setting": "[14]; 50 mg/kg single IP", "result": 0}, {"measurement": "CSS Rough coat", "setting": "[14]; 50 mg/kg single IP", "result": 0}, {"measurement": "CSS Total", "setting": "[14]; 50 mg/kg single IP", "result": 0}, {"measurement": "Number of deaths", "setting": "[14]; 50 mg/kg single IP", "result": 0}, {"measurement": "Max. weight loss after 24 hours", "setting": "[14]; 100 mg/kg single IP", "result": 14, "unit": "%"}, {"measurement": "Max. weight loss after 3 days", "setting": "[14]; 100 mg/kg single IP", "result": 0, "unit": "%"}, {"measurement": "CSS Closed eyes", "setting": "[14]; 100 mg/kg single IP", "result": 0}, {"measurement": "CSS Diarrhea", "setting": "[14]; 100 mg/kg single IP", "result": 0}, {"measurement": "CSS Lethargy", "setting": "[14]; 100 mg/kg single IP", "result": 0}, {"measurement": "CSS Rough coat", "setting": "[14]; 100 mg/kg single IP", "result": 0}, {"measurement": "CSS Total", "setting": "[14]; 100 mg/kg single IP", "result": 0}, {"measurement": "Number of deaths", "setting": "[14]; 100 mg/kg single IP", "result": 0}, {"measurement": "Max. weight loss after 24 hours", "setting": "[14]; 250 mg/kg single IP", "result": 9, "unit": "%"}, {"measurement": "Max. weight loss after 3 days", "setting": "[14]; 250 mg/kg single IP", "result": 0, "unit": "%"}, {"measurement": "CSS Closed eyes", "setting": "[14]; 250 mg/kg single IP", "result": 5}, {"measurement": "CSS Diarrhea", "setting": "[14]; 250 mg/kg single IP", "result": 0}, {"measurement": "CSS Lethargy", "setting": "[14]; 250 mg/kg single IP", "result": 0}, {"measurement": "CSS Rough coat", "setting": "[14]; 250 mg/kg single IP", "result": 5}, {"measurement": "CSS Total", "setting": "[14]; 250 mg/kg single IP", "result": 10}, {"measurement": "Number of deaths", "setting": "[14]; 250 mg/kg single IP", "result": 0}, {"measurement": "Max. weight loss after 24 hours", "setting": "[14]; 500 mg/kg single IP", "result": 11, "unit": "%"}, {"measurement": "Max. weight loss after 3 days", "setting": "[14]; 500 mg/kg single IP", "result": 0, "unit": "%"}, {"measurement": "Rough coat and closed eyes observed, share of the mice", "setting": "[14]; 500 mg/kg single IP", "result": 100, "unit": "%"}, {"measurement": "CSS Closed eyes", "setting": "[14]; 500 mg/kg single IP", "result": 5}, {"measurement": "CSS Diarrhea", "setting": "[14]; 500 mg/kg single IP", "result": 5}, {"measurement": "CSS Lethargy", "setting": "[14]; 500 mg/kg single IP", "result": 2}, {"measurement": "CSS Rough coat", "setting": "[14]; 500 mg/kg single IP", "result": 5}, {"measurement": "CSS Total", "setting": "[14]; 500 mg/kg single IP", "result": 17}, {"measurement": "Number of deaths", "setting": "[14]; 500 mg/kg single IP", "result": 0}, {"measurement": "Calculated dose for an average human weighting 60 kg", "setting": "[14]; 60 kg human", "result": 139.8, "unit": "mg"}, {"measurement": "Body weight loss after 24 h", "setting": "[14]; all tested doses (50-500 mg/kg), single IP", "result": "9-14%"}, {"measurement": "Mortality", "setting": "[14]; all tested doses, single IP", "result": "no mortality"}, {"measurement": "Weight loss after 3 days (returned to initial weight)", "setting": "[14]; all tested doses, single IP", "result": 0, "unit": "%"}, {"measurement": "Calculated MTD (human, after security factor of 10)", "setting": "[14]; human equivalent dose divided by 10", "result": 2.33, "unit": "mg/kg"}, {"measurement": "MTD (maximum tolerated dose)", "setting": "[14]; mice, single IP injection in DMSO", "result": 250, "unit": "mg/kg"}, {"measurement": "MTD equivalent in human (human equivalent dose)", "setting": "[14]; mouse MTD 250 mg/kg divided by conversion factor 12.3", "result": 20.33, "unit": "mg/kg"}]}]}
